In patent publication US20260028338A1, “HETEROBIFUNCTIONAL COMPOUNDS AND METHODS OF TREATING DISEASE” (Halda Therapeutics OpCo, Inc., priority 2023, published 2026):

Assays:
[1] = molecular target: T1, His-tagged BRD4 BD2 (333-460) (Homo sapiens, UniProt O60885); experiment: AlphaLISA competition assay, BRD4 BD2; type: binding; details: BRD4-BD2, AlphaLISA competition with biotinylated histone H4K5/8/12/16(Ac) peptide, 20 nM
T1 construct: The same assay was developed for His-tagged BRD4 BD2 (333-460) and biotinylated histone H4K5/8/12/16(Ac) peptide
Protocol: (§1) Exemplary compounds were tested for ability to bind to bromodomain-containing protein 4 (BRD4).
(§2) Compounds were tested using a developed AlphaLISA competition assay. Briefly, His-tagged BRD4 BD1 (46-168) and biotinylated histone H4K5/8/12/16(Ac) peptide (ANASPEC, AS-64989-1) were incubated in 20 mM HEPES pH 7.5, 100 mM NaCl, 0.5 mM TCEP, 0.1% BSA, 0.02% CHAPS at a final concentration of 10 nM. Test compounds were serially diluted ten times in the same buffer and were added to the BRD4-peptide mixture for 1 h incubation at room temperature. Following incubation, Streptavidin AlphaLISA acceptor beads (PerkinElmer, AL125M) were added to BRD4-peptide-compound samples to a final concentration of 0.01 mg/mL for a 0.5 h incubation at room temperature in the dark. Following incubation, the same amount of Nickel Chelate Alpha donor beads (PerkinElmer, AS101M) were added to the samples for a final 1 h incubation. The AlphaLISA signals were measured using an EnVision plate reader (PerkinElmer). The data were uploaded to Screening Ultra (Dotmatics) to determine the half-maximal inhibitory concentration (IC50) for each test compound.
The same assay was developed for His-tagged BRD4 BD2 (333-460) and biotinylated histone H4K5/8/12/16(Ac) peptide at a final concentration of 20 nM.

[2] = molecular target: T2, biotinylated BCL6 (5-129) (Homo sapiens, UniProt P41182); experiment: SPR assay for binding affinity to BCL6; details: Biacore 8K, 25° C., immobilized biotinylated BCL6 (5-129)
T2 construct: biotinylated BCL6 (5-129) was diluted in 10 mM HEPES pH 7.4; biotin (biotinylated)
Protocol: Exemplary compounds were tested for ability to bind to B-cell lymphoma 6 (BCL6) protein.
Binding studies by surface plasmon resonance (SPR) were performed using a Biacore 8K (Cytiva) instrument at 25° C. Briefly, biotinylated BCL6 (5-129) was diluted in 10 mM HEPES pH 7.4, 150 mM NaCl, 0.05% Surfactant P20, 0.5 mM TCEP, 3% DMSO to 1-5 μg/mL and was immobilized on an SA sensor chip (Cytiva, BR100032), resulting in surface densities at 1000-3000 resonance units (RUs). Test compounds were serially diluted five times in the same buffer and were injected to the immobilized surface. Kinetic determination experiments were performed using single-cycle kinetics with 110-120 s contact time, 1000-4000 s dissociation time, 30 μL/min flow rate. Binding data were analyzed by using Biacore insight evaluation software to determine KD values for test compounds.

[3] = test system: T-Rex 293 cell line SC cells having increased expression of BCL6 protein; experiment: Cellular growth inhibition assay, T-Rex 293 SC cells with doxycycline (CellTiter-Glo); type: cell-based; details: T-Rex 293 SC cells with 10 ng/mL doxycycline (increased BCL6 expression), 72 hours, CellTiter-Glo 2.0
Protocol: (§3) Exemplary compounds were tested for ability to inhibit the proliferation of the following types of cells: (i) a T-Rex 293 cell line having increased expression of BCL6 protein due to exposure of doxycycline and (ii) a T-Rex 293 cell line lacking increased expression of BCL6 protein.
(§4) The following types of cells were prepared for this experiment: (i) a T-Rex 293 cell line having increased expression of BCL6 protein due to exposure to doxycycline and (ii) a T-Rex 293 cell line lacking increased expression of BCL6 protein. Ability of the test compounds to inhibit proliferation of the foregoing cell types was evaluated according to the procedures set forth below.
(§5) The doxycycline-inducible BCL6 protein expressing cell line was established using the following protocol: T-Rex 293 cells were purchased from Invitrogen (Cat #R71007) and transfected using Lipofectamine 2000 with the wild-type BCL6 protein sequence cloned into the pcDNA4/TO vector. Transfected cells were selected using 400 μg/mL Zeocin (Invitrogen Cat #R25001). Following selection, single clones were raised and maintained in Dulbecco's Modified Eagle Medium (DMEM) supplemented with 10% w/w Tetracycline-free fetal bovine serum (FBS) and 250 μg/mL Zeocin. Clones were analyzed for expression of BCL6 protein in the presence and absence of 10 ng/mL doxycycline (Sigma Cat #D9891), and a single doxycycline-inducible clone (hereinafter “SC”) was selected for use in downstream assays.
(§6) The SC cells were seeded on poly-D-lysine coated, black clear-bottom 384-well plates at 2500/well, in 25 μL Dulbecco's Modified Eagle Medium (DMEM) supplemented with 10% w/w Tetracycline-free fetal bovine serum (FBS) and 1% w/w pen-strep, with or without 10 ng/mL doxycycline. Pen-Strep is a commercially available mixture of penicillin G and streptomycin, which is used in mammalian cell culture media to prevent bacterial contamination. Dulbecco's Modified Eagle Medium (DMEM) supplemented with 10% w/w Tetracycline-free fetal bovine serum (FBS) and 1% w/w pen-strep, with or without 10 ng/mL doxycycline is herein referred to as Treatment Medium. Following seeding of cells in the plates, the plates were spun at 300×g for 30 seconds, then equilibrated to room temperature for 30 minutes, and then deposited in a humidified tissue culture incubator maintained at 37° C. with 5% CO2.
(§7) At 24 hours after seeding of the cells, dilutions of test compound were prepared in DMSO and dissolved in Treatment Medium, to achieve a final DMSO concentration of 0.5% w/w, thereby providing the Test Compound Solution. A 25 μL aliquot of the Test Compound Solution was added to cells in the well plates. An equal volume of a solution containing DMSO and Treatment Medium was used as a negative control. Following treatment of cells with Test Compound Solution or said equal volume of a solution containing DMSO and Treatment Medium, the plates were spun at 300×g for 30 seconds, and then left in an incubator for 72 hours.
(§8) At the end of the treatment duration, cell viability was quantified with CellTiter-Glo 2.0 reagent (Promega Cat #G9243). For this purpose, plates were equilibrated to room temperature for 30 minutes, and then 25 μL of CellTiter-Glo 2.0 reagent was added to cells in the plate wells. Plates were then agitated on a shaker for two minutes at 500 rpm and subsequently incubated at room temperature for 10 minutes. Following incubation, the plates were spun at 3000×g for 30 seconds, then sealed with an optical adhesive cover, and luminescence readings were measured with an EnVision Plate Reader (Perkin Elmer).
(§9) Data was normalized using zero luminescence for baseline. A four-parameter non-linear regression curve fit was applied to dose-response data in GraphPad Prism data analysis software to determine the half-maximal growth inhibitory concentration (GI50) for each test compound.

[4] = test system: T-Rex 293 cell line SC cells lacking increased expression of BCL6 protein; experiment: Cellular growth inhibition assay, T-Rex 293 SC cells without doxycycline (CellTiter-Glo); type: cell-based; details: T-Rex 293 SC cells not exposed to doxycycline (no increased BCL6 expression), 72 hours, CellTiter-Glo 2.0
Protocol: as §3, §4, §5, §6, §7, §8, §9

Farage cell line = experiment: Cellular growth inhibition assay, Farage cells (CellTiter-Glo); type: cell-based; details: Farage cell line (DLBCL), 72 hours, CellTiter-Glo 2.0
Protocol: (§10) Exemplary compounds were tested for ability to inhibit the proliferation of Su-DHL-4 and Farage cells. Su-DHL-4 and Farage cells are commercially available diffuse large B cell lymphoma cell lines (DLBCL).
(§11) Su-DHL-4 and Farage cells were purchased from American Type Cell Culture (ATCC Cat #CRL-2957/CRL-2630) and then seeded on poly-D-lysine coated, black clear-bottom 384-well plates at 3000/well in 25 μL Roswell Park Memorial Institute media (RPMI-1640) supplemented with 10% w/w Fetal bovine serum (FBS) and 1% w/w Pen-Strep. Pen-Strep is a commercially available mixture of penicillin G and streptomycin, which is used in mammalian cell culture media to prevent bacterial contamination. Roswell Park Memorial Institute media (RPMI-1640) supplemented with 10% w/w fetal bovine serum (FBS), and 1% w/w Pen-Strep is herein referred to as Treatment Medium. Following seeding of cells in the plates, the plates were spun at 300×g for 30 seconds, then equilibrated to room temperature for 30 minutes, and then deposited in a humidified tissue culture incubator maintained at 37° C. with 5% CO2.
as §7, §8, §9

[5] = molecular target: T3, His-tagged BRD4 BD1 (46-168) (Homo sapiens, UniProt O60885); experiment: AlphaLISA competition assay, BRD4 BD1; type: binding; details: BRD4-BD1, AlphaLISA competition with biotinylated histone H4K5/8/12/16(Ac) peptide, 10 nM
T3 construct: His-tagged BRD4 BD1 (46-168) and biotinylated histone H4K5/8/12/16(Ac) peptide
Protocol: as §1, §2

Su-DHL-4 cell line = experiment: Cellular growth inhibition assay, Su-DHL-4 cells (CellTiter-Glo); type: cell-based; details: Homo sapiens; Su-DHL-4 cell line (DLBCL), 72 hours, CellTiter-Glo 2.0
Protocol: as §10, §11, §7, §8, §9

IC50 [1] [nM]	Kd [2] [nM]	IC50 [5] [nM]	GI50 (Su-DHL-4 cell line) [nM]	SMILES	GI50 [3] [nM]	GI50 [4] [nM]	GI50 (Farage cell line) [nM]
< 5	> 100	< 5	–	CNC(=O)COc1cc2cc(Nc3nc(N4CCC(CN5CCN(Cc6ccc(Oc7ccc(C(C)(C)O)cc7-c7cn(C)c(=O)c8[nH]ccc78)cc6)CC5)CC4)ncc3Cl)ccc2n(C)c1=O [Compound I-38]	< 500	< 500	< 500
< 5	1 to 10	< 5	–	CNC(=O)COc1cc2cc(Nc3nc(N4CCC(CN5CCN(CC[C@H]6C[C@@H](Oc7ccc(C(C)(C)O)cc7-c7cn(C)c(=O)c8[nH]ccc78)C6)CC5)CC4)ncc3Cl)ccc2n(C)c1=O [Compound I-46]	< 500	< 500	< 500
> 500	< 1	< 5	–	CNC(=O)COc1cc2cc(Nc3nc(N4CCCC5(CN(C[C@H]6C[C@@H](Oc7ccc(C(C)(C)O)cc7-c7cn(C)c(=O)c8[nH]ccc78)C6)C5)C4)ncc3Cl)ccc2n(C)c1=O [Compound I-42]	< 500	> 3000	1500 to 3000
< 5	1 to 10	< 5	–	CNC(=O)COc1cc2cc(Nc3nc(N4CCN(CCN5CCN(Cc6cccc(Oc7ccc(C(C)(C)O)cc7-c7cn(C)c(=O)c8[nH]ccc78)c6)CC5)CC4)ncc3Cl)ccc2n(C)c1=O [Compound I-47]	< 500	< 500	< 500
< 5	10 to 100	< 5	–	CNC(=O)COc1cc2cc(Nc3nc(N4CCC(N5CCN(Cc6cccc(Oc7ccc(C(C)(C)O)cc7-c7cn(C)c(=O)c8[nH]ccc78)c6)CC5)CC4)ncc3Cl)ccc2n(C)c1=O [Compound I-40]	< 500	< 500	< 500
–	–	–	< 500	CCS(=O)(=O)Nc1ccc(Oc2cccc(OCCOCCOC3CCN(c4ncc(Cl)c(Nc5ccc6c(c5)cc(OCC(=O)NC)c(=O)n6C)n4)CC3)c2)c(-c2cn(C)c(=O)c3[nH]ccc23)c1 [Compound I-1, 2-[[6-[[5-chloro-2-[4-[2-[2-[3-[4-(ethylsulfonylamino)-2-(6-methyl-7-oxo-1H-pyrrolo[2,3-c]pyridin-4-yl)phenoxy]phenoxy]ethoxy]ethoxy]-1-piperidyl]pyrimidin-4-yl]amino]-1-methyl-2-oxo-3-quinolyl]oxy]-N-methyl-acetamide]	–	–	–
> 500	1 to 10	< 5	–	CNC(=O)COc1cc2cc(Nc3nc(N4CCCC5(CN(C[C@H]6C[C@H](Oc7ccc(C(C)(C)O)cc7-c7cn(C)c(=O)c8[nH]ccc78)C6)C5)C4)ncc3Cl)ccc2n(C)c1=O [Compound I-41]	< 500	> 3000	1500 to 3000
< 5	10 to 100	5 to 50	–	CNC(=O)COc1cc2cc(Nc3nc(N4CCC(CN5CCN(Cc6cccc(Oc7ccc(C(C)(C)O)cc7-c7cn(C)c(=O)c8[nH]ccc78)c6)CC5)CC4)ncc3Cl)ccc2n(C)c1=O [Compound I-39]	< 500	< 500	< 500
< 5	10 to 100	< 5	< 500	CNC(=O)COc1cc2cc(Nc3nc(N4CCC(CN5CC(Oc6ccc(C7=N[C@@H](Cc8ncco8)c8nnc(C)n8-c8sc(C)c(C)c87)cc6)C5)CC4)ncc3Cl)ccc2n(C)c1=O [Compound I-26]	< 500	< 500	–
< 5	10 to 100	< 5	–	CNC(=O)COc1cc2cc(Nc3nc(N4CCC(N5CCN(Cc6ccc(Oc7ccc(C(C)(C)O)cc7-c7cn(C)c(=O)c8[nH]ccc78)cc6)CC5)CC4)ncc3Cl)ccc2n(C)c1=O [Compound I-48]	< 500	< 500	< 500
< 5	1 to 10	< 5	–	CNC(=O)COc1cc2cc(Nc3nc(N4CCC(CN5CCCC6(C5)CN(C[C@H]5C[C@@H](Oc7ccc(C(C)(C)O)cc7-c7cn(C)c(=O)c8[nH]ccc78)C5)C6)CC4)ncc3Cl)ccc2n(C)c1=O [Compound I-44]	< 500	500 to 1500	< 500
